From patent publication EP4722212A1, “NOVEL COMPOUND FOR INHIBITING PROTEIN KINASES AND PHARMACEUTICAL COMPOSITION COMPRISING SAME” (Magicbullettherapeutics Co., Ltd., priority 2023, dated 2024)
Where two headings read alike, the source gives them in different places.

How the values were obtained:
Assay in all cases: Kinase panel
Assay type in all cases: biochemical
ALK1/ACVRL1 = ALK1/ACVRL1 (Homo sapiens, UniProt P37023); conditions: ALK1/ACVRL1, 1 µM; read-out: residual enzyme activity
How it was run: (§1)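 Kinase profiling used a full biochemical panel. Test compound concentration: 1 µM, single point. Output: calculated residual activity, with kinases at or under 40% reported.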

ALK2/ACVR1 = ALK2/ACVR1 (Homo sapiens, UniProt Q04771); conditions: ALK2/ACVR1, 1 µM; read-out: residual enzyme activity
How it was run: as §1

ARAF = conditions: 1 µM
How it was run: as §1

AURORA B = AURORA B (Homo sapiens, UniProt Q96GD4); conditions: read-out: residual enzyme activity
How it was run: as §1

BTK = BTK (Homo sapiens, UniProt Q06187); conditions: read-out: residual enzyme activity
BTK, sequence (Q06187 whole entry, species assumed): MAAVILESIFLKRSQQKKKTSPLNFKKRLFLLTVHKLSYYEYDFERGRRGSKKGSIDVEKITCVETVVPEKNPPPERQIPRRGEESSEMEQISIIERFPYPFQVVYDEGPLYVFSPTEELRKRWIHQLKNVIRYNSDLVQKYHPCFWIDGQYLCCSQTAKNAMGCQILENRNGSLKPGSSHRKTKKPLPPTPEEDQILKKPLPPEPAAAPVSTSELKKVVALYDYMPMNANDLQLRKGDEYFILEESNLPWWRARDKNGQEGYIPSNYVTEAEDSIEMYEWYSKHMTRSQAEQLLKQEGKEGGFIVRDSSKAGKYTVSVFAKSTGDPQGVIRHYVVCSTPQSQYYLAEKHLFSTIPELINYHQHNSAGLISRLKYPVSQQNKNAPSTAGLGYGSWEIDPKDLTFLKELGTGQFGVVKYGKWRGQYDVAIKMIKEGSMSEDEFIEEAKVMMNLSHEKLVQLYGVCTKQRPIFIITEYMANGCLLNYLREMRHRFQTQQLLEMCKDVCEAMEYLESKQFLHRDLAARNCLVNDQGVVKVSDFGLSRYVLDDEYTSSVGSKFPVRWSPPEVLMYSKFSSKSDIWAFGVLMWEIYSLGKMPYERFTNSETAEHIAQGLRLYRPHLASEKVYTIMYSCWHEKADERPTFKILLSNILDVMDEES
How it was run: as §1

CDK6/CYCLIN D3 = CDK6/CYCLIN D3 (Homo sapiens, UniProt Q00534); conditions: CDK6/cyclin D3, 1 µM; read-out: residual enzyme activity
How it was run: as §1

CDK9/CYCLIN T1 = CDK9/CYCLIN T1 (Homo sapiens, UniProt P50750); conditions: CDK9/cyclin T1, 1 µM; read-out: residual enzyme activity
CDK9/CYCLIN T1, sequence (P50750 whole entry, species assumed): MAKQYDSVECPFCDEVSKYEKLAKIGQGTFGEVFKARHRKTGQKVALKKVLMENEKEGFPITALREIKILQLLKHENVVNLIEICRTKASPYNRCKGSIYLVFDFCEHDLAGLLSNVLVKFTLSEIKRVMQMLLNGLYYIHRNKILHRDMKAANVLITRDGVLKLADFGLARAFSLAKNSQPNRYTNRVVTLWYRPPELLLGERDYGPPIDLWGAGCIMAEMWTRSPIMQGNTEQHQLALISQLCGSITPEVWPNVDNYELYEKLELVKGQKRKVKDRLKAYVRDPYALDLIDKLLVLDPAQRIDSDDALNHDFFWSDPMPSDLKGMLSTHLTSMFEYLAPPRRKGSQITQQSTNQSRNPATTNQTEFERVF
CDK9/CYCLIN T1, sequence (O60563 whole entry partner, species assumed): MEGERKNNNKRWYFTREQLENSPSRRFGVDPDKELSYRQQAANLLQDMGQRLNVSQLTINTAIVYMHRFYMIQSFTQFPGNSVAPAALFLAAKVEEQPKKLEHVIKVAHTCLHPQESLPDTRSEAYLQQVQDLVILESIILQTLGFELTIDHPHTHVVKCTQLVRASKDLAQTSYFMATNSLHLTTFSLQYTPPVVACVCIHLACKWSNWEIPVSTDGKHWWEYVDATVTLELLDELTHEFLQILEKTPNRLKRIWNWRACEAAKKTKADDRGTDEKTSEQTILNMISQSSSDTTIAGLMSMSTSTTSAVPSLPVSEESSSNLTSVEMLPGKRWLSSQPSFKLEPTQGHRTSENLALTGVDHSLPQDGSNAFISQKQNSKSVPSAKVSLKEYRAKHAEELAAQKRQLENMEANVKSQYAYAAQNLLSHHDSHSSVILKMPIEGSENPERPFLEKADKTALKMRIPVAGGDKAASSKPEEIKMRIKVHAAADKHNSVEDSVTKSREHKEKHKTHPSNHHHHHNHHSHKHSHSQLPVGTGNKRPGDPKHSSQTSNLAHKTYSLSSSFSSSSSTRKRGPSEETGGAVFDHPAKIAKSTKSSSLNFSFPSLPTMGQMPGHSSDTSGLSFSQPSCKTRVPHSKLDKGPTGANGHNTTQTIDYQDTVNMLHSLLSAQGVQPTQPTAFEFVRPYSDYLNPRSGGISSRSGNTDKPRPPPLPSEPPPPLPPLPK
How it was run: as §1

CKIEPSILON = CKIEPSILON (Homo sapiens, UniProt P49674); conditions: read-out: residual enzyme activity
How it was run: as §1

CLK1 = CLK1 (Homo sapiens, UniProt P49759); conditions: CLK1, 1 µM; read-out: residual enzyme activity
How it was run: as §1

CLK2 = CLK2 (Homo sapiens, UniProt P49760); conditions: CLK2, 1 µM; read-out: residual enzyme activity
How it was run: as §1

DAPK1 = DAPK1 (Homo sapiens, UniProt P53355); conditions: DAPK1, 1 µM; read-out: residual enzyme activity
DAPK1, sequence (P53355 whole entry, species assumed): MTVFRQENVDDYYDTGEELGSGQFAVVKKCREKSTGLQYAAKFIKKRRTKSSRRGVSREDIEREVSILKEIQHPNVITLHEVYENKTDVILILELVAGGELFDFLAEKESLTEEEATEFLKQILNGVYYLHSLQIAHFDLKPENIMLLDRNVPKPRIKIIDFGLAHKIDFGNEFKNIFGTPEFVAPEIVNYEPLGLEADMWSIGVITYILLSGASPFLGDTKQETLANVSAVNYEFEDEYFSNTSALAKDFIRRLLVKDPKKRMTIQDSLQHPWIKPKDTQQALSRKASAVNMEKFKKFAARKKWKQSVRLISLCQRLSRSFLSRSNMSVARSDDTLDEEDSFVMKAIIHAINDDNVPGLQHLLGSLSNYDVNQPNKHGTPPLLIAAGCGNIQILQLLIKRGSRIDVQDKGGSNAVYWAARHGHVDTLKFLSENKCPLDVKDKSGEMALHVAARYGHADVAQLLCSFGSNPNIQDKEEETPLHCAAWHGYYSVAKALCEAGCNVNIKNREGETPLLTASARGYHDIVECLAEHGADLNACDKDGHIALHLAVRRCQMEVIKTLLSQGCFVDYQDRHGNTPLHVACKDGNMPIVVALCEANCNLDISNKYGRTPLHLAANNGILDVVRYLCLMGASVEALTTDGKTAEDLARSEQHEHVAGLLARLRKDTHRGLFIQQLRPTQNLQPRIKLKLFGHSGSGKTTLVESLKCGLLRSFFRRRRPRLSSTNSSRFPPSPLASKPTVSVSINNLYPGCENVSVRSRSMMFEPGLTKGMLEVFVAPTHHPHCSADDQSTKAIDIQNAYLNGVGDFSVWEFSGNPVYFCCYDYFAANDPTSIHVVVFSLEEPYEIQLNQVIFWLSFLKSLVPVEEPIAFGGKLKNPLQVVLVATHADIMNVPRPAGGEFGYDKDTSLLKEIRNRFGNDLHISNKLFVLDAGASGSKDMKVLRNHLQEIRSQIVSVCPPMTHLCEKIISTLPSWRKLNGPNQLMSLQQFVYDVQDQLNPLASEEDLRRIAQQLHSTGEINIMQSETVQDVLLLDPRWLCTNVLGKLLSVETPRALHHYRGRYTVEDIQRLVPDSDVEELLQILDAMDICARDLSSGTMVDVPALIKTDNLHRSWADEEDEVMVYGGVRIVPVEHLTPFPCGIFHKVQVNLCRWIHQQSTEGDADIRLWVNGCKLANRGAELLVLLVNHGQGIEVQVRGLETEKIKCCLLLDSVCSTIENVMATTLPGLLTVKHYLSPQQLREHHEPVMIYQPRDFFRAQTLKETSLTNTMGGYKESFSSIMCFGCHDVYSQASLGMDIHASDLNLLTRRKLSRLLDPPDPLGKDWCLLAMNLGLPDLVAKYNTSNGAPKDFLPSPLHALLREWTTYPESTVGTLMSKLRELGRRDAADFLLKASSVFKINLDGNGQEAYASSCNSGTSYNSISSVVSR
How it was run: as §1

FAK/PTK2 = FAK/PTK2 (Homo sapiens, UniProt Q05397); conditions: FAK/PTK2, 1 µM; read-out: residual enzyme activity
How it was run: as §1

FGFR2 = FGFR2 (Homo sapiens, UniProt P21802); conditions: FGFR2, 1 µM; read-out: residual enzyme activity
How it was run: as §1

GRK7 = GRK7 (Homo sapiens, UniProt Q8WTQ7); conditions: GRK7, 1 µM; read-out: residual enzyme activity
GRK7, sequence (Q8WTQ7 whole entry, species assumed): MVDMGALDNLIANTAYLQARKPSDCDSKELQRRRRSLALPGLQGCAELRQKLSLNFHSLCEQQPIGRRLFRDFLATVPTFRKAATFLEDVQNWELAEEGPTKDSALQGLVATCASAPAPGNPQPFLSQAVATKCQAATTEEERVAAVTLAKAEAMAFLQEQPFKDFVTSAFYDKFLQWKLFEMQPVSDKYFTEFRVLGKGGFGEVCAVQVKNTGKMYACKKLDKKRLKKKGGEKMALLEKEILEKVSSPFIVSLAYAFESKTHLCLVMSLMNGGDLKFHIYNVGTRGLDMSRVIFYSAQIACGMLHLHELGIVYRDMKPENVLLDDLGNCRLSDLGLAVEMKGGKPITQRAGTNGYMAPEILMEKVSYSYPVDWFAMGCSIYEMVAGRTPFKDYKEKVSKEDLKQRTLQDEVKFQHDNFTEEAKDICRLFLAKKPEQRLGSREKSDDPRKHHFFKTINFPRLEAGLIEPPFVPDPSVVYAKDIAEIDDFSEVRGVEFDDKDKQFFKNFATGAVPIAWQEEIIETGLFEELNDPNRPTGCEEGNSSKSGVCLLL
How it was run: as §1

IRAK4 = IRAK4 (Homo sapiens, UniProt Q9NWZ3); conditions: IRAK4, 1 µM; read-out: residual enzyme activity
IRAK4, sequence (Q9NWZ3 whole entry, species assumed): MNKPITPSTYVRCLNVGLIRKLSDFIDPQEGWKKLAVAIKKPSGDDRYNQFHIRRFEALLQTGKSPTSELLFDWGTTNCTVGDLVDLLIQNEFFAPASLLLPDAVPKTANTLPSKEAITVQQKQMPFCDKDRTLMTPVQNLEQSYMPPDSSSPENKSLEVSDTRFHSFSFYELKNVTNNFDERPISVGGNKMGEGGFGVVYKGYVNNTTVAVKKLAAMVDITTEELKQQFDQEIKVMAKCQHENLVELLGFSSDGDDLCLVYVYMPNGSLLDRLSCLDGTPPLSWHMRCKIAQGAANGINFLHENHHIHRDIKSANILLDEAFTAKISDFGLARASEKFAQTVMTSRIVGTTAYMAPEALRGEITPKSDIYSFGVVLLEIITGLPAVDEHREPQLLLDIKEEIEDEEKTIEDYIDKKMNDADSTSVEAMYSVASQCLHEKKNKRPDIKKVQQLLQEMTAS
How it was run: as §1

JNK2 = JNK2 (Homo sapiens, UniProt P45984); conditions: read-out: residual enzyme activity
How it was run: as §1

LIMK2 = LIMK2 (Homo sapiens, UniProt P53671); conditions: LIMK2, 1 µM; read-out: residual enzyme activity
How it was run: as §1

LRRK2 = LRRK2 (Homo sapiens, UniProt Q5S007); conditions: LRRK2, 1 µM; read-out: residual enzyme activity
How it was run: as §1

MLK2/MAP3K10 = MLK2/MAP3K10 (Homo sapiens, UniProt Q02779); conditions: MLK2/MAP3K10, 1 µM; read-out: residual enzyme activity
How it was run: as §1

MSSK1/STK23 = MSSK1/STK23 (Homo sapiens, UniProt Q9UPE1); conditions: MSSK1/STK23, 1 µM; read-out: residual enzyme activity
How it was run: as §1

MYLK4 = MYLK4 (Homo sapiens, UniProt Q86YV6); conditions: MYLK4, 1 µM; read-out: residual enzyme activity
How it was run: as §1

NEK5 = NEK5 (Homo sapiens, UniProt Q6P3R8); conditions: NEK5, 1 µM; read-out: residual enzyme activity
How it was run: as §1

PDGFRB = PDGFRB (Homo sapiens, UniProt P09619); conditions: read-out: residual enzyme activity
How it was run: as §1

PKCIOTA = PKCIOTA (Homo sapiens, UniProt P41743); conditions: read-out: residual enzyme activity
How it was run: as §1

PKN1/PRK1 = PKN1/PRK1 (Homo sapiens, UniProt Q16512); conditions: PKN1/PRK1, 1 µM; read-out: residual enzyme activity
How it was run: as §1

SIK2 = SIK2 (Homo sapiens, UniProt Q9H0K1); conditions: SIK2, 1 µM; read-out: residual enzyme activity
How it was run: as §1

SNARK/NUAK2 = SNARK/NUAK2 (Homo sapiens, UniProt Q9H093); conditions: SNARK/NUAK2, 1 µM; read-out: residual enzyme activity
SNARK/NUAK2, sequence (Q9H093 whole entry): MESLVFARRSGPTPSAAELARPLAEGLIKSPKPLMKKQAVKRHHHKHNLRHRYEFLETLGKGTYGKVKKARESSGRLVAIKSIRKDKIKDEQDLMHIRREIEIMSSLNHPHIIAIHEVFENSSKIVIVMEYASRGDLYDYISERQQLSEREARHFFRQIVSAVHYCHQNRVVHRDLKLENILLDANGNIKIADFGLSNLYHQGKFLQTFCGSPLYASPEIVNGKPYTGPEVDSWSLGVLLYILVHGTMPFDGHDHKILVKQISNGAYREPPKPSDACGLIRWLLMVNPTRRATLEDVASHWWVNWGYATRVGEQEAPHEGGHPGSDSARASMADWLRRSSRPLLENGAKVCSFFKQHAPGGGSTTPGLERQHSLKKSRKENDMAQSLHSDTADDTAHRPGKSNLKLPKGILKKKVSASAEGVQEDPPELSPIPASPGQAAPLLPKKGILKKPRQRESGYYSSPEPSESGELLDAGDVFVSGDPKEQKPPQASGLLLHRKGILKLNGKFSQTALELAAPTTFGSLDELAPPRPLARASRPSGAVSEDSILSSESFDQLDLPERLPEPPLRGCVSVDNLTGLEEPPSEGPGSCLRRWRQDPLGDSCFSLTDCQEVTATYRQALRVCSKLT
How it was run: as §1

SRPK1 = SRPK1 (Homo sapiens, UniProt Q96SB4); conditions: SRPK1, 1 µM; read-out: residual enzyme activity
How it was run: as §1

STK32C/YANK3 = STK32C/YANK3 (Homo sapiens, UniProt Q86UX6); conditions: STK32C/YANK3, 1 µM; read-out: residual enzyme activity
How it was run: as §1

SYK = SYK (Homo sapiens, UniProt P43405); conditions: read-out: residual enzyme activity
How it was run: as §1

TRKC = TRKC (Homo sapiens, UniProt Q16288); conditions: read-out: residual enzyme activity
How it was run: as §1

ULK2 = ULK2 (Homo sapiens, UniProt Q8IYT8); conditions: ULK2, 1 µM; read-out: residual enzyme activity
How it was run: as §1

WNK1 = WNK1 (Homo sapiens, UniProt Q9H4A3); conditions: WNK1, 1 µM; read-out: residual enzyme activity
How it was run: as §1

SMILES | remaining activity at 1 µM (ALK1/ACVRL1) | remaining activity at 1 µM (ALK2/ACVR1) | residual enzyme activity (ARAF) | remaining activity at 1 µM (AURORA B) | remaining activity at 1 µM (BTK) | remaining activity at 1 µM (CDK6/CYCLIN D3) | remaining activity at 1 µM (CDK9/CYCLIN T1) | remaining activity at 1 µM (CLK1) | remaining activity at 1 µM (CLK2) | remaining activity at 1 µM (DAPK1) | remaining activity at 1 µM (FAK/PTK2) | remaining activity at 1 µM (FGFR2) | remaining activity at 1 µM (GRK7) | remaining activity at 1 µM (IRAK4) | remaining activity at 1 µM (LIMK2) | remaining activity at 1 µM (LRRK2) | remaining activity at 1 µM (MLK2/MAP3K10) | remaining activity at 1 µM (MSSK1/STK23) | remaining activity at 1 µM (MYLK4) | remaining activity at 1 µM (NEK5) | also measured
Cc1cn(-c2cc(C(=O)Nc3ccc(C)c(N4Cc5cnc(NC6CC6)nc5C5(CC5)C4=O)c3)cc(C(F)(F)F)c2)cn1 [Compound 8, N-(3-(2'-(cyclopropylamino)-7'-oxo-5'H-spiro[cyclopropane-1,8'-pyrido[4,3-d]pyrimidine]-6'(7'H)-yl)-4-methylphenyl)-3-(4-methyl-1H-imidazol-1-yl)-5-(trifluoromethyl)benzamide] | > 40% | > 40% | O (residual enzyme activity values were 40% or less, i.e., inhibited by 60% or more) | > 40% | ≤ 40% | > 40% | > 40% | > 40% | > 40% | > 40% | ≤ 40% | ≤ 40% | > 40% | > 40% | ≤ 40% | > 40% | > 40% | > 40% | > 40% | > 40% | remaining activity at 1 µM (CKIEPSILON; CKIEPSILON): > 40%; remaining activity at 1 µM (JNK2; JNK2, 1 µM): > 40%; remaining activity at 1 µM (PDGFRB): ≤ 40%; remaining activity at 1 µM (PKCIOTA): > 40%; remaining activity at 1 µM (PKN1/PRK1): > 40%; remaining activity at 1 µM (SIK2): > 40%; remaining activity at 1 µM (SNARK/NUAK2): > 40%; remaining activity at 1 µM (SRPK1): > 40%; remaining activity at 1 µM (STK32C/YANK3): > 40%; remaining activity at 1 µM (SYK): > 40%; remaining activity at 1 µM (TRKC): ≤ 40%; remaining activity at 1 µM (ULK2): > 40%; remaining activity at 1 µM (WNK1): > 40%
Cc1ccc(Nc2ncc3c(n2)C2(CC2)C(=O)N(c2cc(NC(=O)c4cccc(C(F)(F)F)c4)ccc2C)C3)cn1 [Compound 51, N-(4-methyl-3-(2'-((6-methylpyridin-3-yl)amino)-7'-oxo-5'H-spiro[cyclopropane-1,8'-pyrido[4,3-d]pyrimidine]-6'(7'H)-yl)phenyl)-3-(trifluoromethyl)benzamide] | > 40% | > 40% | O (residual enzyme activity values were 40% or less, i.e., inhibited by 60% or more) | > 40% | ≤ 40% | > 40% | > 40% | > 40% | > 40% | > 40% | ≤ 40% | ≤ 40% | > 40% | > 40% | ≤ 40% | ≤ 40% | ≤ 40% | > 40% | > 40% | > 40% | remaining activity at 1 µM (CKIEPSILON; CKlepsilon): > 40%; remaining activity at 1 µM (JNK2; INK2, 1 µM): ≤ 40%; remaining activity at 1 µM (PDGFRB): ≤ 40%; remaining activity at 1 µM (PKCIOTA): > 40%; remaining activity at 1 µM (PKN1/PRK1): > 40%; remaining activity at 1 µM (SIK2): ≤ 40%; remaining activity at 1 µM (SNARK/NUAK2): > 40%; remaining activity at 1 µM (SRPK1): > 40%; remaining activity at 1 µM (STK32C/YANK3): > 40%; remaining activity at 1 µM (SYK): ≤ 40%; remaining activity at 1 µM (TRKC): ≤ 40%; remaining activity at 1 µM (ULK2): > 40%; remaining activity at 1 µM (WNK1): > 40%
